PMC7998855 (Toxins, 2021)
Several values for one entry are separate records, joined by “and”; a condition that tells them apart may be missing. Identical values can stand only once.

What was measured:
[1] = tested on: differentiated C2BBe1 cells; assay type: cell-based, human; conditions: for TEER, normalized to solvent control: SD
[2] = tested on: differentiated Caco-2 (C2BBe1) cell monolayer; assay type: cell-based, human; conditions: 24 h incubation with toxin (CER 1-100 ng/mL, DON 0.1-10 µg/mL), then 0.1 mg/mL LY apical in HBSS pH 7.4, 1 h, 37 °C, basolateral fluorescence, 3 biological replicates
[3] = tested on: tight junction protein claudin-4 (CLD-4); experiment: Immunofluorescence staining of claudin-4; assay type: cell-based, human; conditions: 24 h, mean ± SD, 3 biological replicates, at least 9 optical fields
mucin 5AC [4] = experiment: Immunofluorescence staining of mucin 5AC; assay type: cell-based, human; conditions: 24 h, 3 biological replicates; for mucin 5AC fluorescence intensity compared to the solvent control: mean ± SD, SD
[5] = tested on: differentiated Caco-2 (C2BBe1) cells
mucin 5AC [6] = conditions: 2 µM DON, 48 h incubation; cited from earlier work
Experimental: In addition to the investigation of barrier integrity, interest in the influence of mycotoxins on the intestinal mucus layer recently emerged, whereby data is still scarce. […] In addition to the different incubation times a ...

[7] = tested on: differentiated Caco-2 cells; experiment: LC-MS/MS of CER in transwell compartments (uptake); assay type: in vitro ADME, human; conditions: 24 h; for CER concentration in basolateral medium: apical application, mean ± SD, 3 biological replicates, SD

Row | Compound | TEER, normalized to solvent control [1] | Effect on paracellular passage of Lucifer Yellow [2] | CLD-4 immunofluorescence intensity in comparison to the solvent control ([3]; 10 µg/mL DON) | mucin 5AC fluorescence intensity vs solvent control (mucin 5AC [4]; DON alone (1 and 10 µg/mL)) | DON concentration in cell lysates [5] | Detection of DON in apical medium, basolateral medium and cell lysates [5] | mucin 5AC in cell lysates of Caco-2 cells (mucin 5AC [6]) | TEER [1] | CLD-4 immunofluorescence intensity in comparison to the solvent control ([3]; 10 ng/mL CER) | CLD-4 immunofluorescence intensity in comparison to the solvent control ([3]; 100 ng/mL CER) | mucin 5AC fluorescence intensity compared to the solvent control (mucin 5AC [4]; 10 ng/mL CER) | mucin 5AC fluorescence intensity compared to the solvent control (mucin 5AC [4]; 100 ng/mL CER) | CER concentration in basolateral medium ([7]; 100 ng/mL CER with 10 µg/mL DON, transwell) | CER concentration in basolateral medium ([7]; 100 ng/mL CER without DON, transwell) | CER in cell lysates ([7]; 1-100 ng/mL CER with or without DON) | CER in the apical compartment ([7]; 1-100 ng/mL CER with or without DON, transwell)
1 | CC1=C[C@H]2O[C@@H]3[C@H](O)C[C@](C)([C@@]2(CO)[C@H](O)C1=O)[C@]31CO1 [DON, deoxynivalenol] | 116 ± 12% and 116 ± 6% | no significant effects | 127 ± 38% | no significant effect | < LOD | detected in all compartments and incubation conditions, except the cell lysates treated with the lowest toxin concentration | upregulation of mucin 5AC | – | – | – | – | – | – | – | – | –
2 | cereulide | 193 ± 7% and 163 ± 34% | no significant effects | – | – | – | – | – | no impact | 173 ± 41% | 138 ± 49% | 80 ± 14% | 73 ± 20% | 0.07 ± 0.05 ng/mL medium | 0.04 ± 0.02 ng/mL medium | detected in the cell lysates of all samples | quantified in all treatment conditions
